# In patent US20240115571A1, “COMBINATION THERAPY FOR TREATING ABNORMAL CELL GROWTH” (priority 2021, published 2024):
# System: EGFR mutant H1975 osimertinib-resistant (Dell9/T790M/C797S) NSCLC model
# Experiment: H1975 osimertinib-resistant xenograft tumor mouse study
# Type: in vivo, Balb/c nude mice
# Conditions: VS-6766 0.3 mg/kg PO QD; osimertinib 2.5 mg/kg QD
# Protocol: EGFR mutant H1975 NSCLC tumor cells were obtained from ATCC, EGFR mutant H1975 osimertinib-resistant NSCLC tumor cells were generated by Wuxi AppTec, and Balb/c nude mice were obtained from Beijing Vital River Laboratory Animal Technology. Tumor challenge was initiated by subcutaneous inoculation of 5×10^6 tumor cell suspensions into the right flank of recipient mice.
# Tumor sizes (mm^3) and body weights were measured 2 times per week for the duration of the study. At the time of routine monitoring, the animals were checked for any effects of tumor growth and treatments on normal behavior such as mobility, food and water consumption (by looking only), and body weight gain/loss, eye/hair matting and any other abnormal effect.
smiles,measurement,value
CNS(=O)(=O)Nc1nccc(Cc2c(C)c3ccc(Oc4ncccn4)cc3oc2=O)c1F [VS-6766],survival compared to osimertinib single agent,increased
same,tumor growth inhibition compared to osimertinib single agent,increased tumor growth inhibition
